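In this assay, cells in 96-well plates receive the compound at five concentrations for 48 hours. Endpoints are linearly interpolated between the surrounding concentrations. GI50 is the concentration that inhibits growth by half. TGI marks complete inhibition of growth.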
Key:
Assay in all cases: NCI tumour cell line growth inhibition, 48 h
DLD-1 colon = tested on: DLD-1 colon
DMS 114 small cell lung = tested on: DMS 114 small cell lung
DMS 273 small cell lung = tested on: DMS 273 small cell lung
HOP-18 NSCLC = tested on: HOP-18 NSCLC
M19-MEL melanoma = tested on: M19-MEL melanoma
P388 leukemia = tested on: P388 leukemia
P388/ADR leukemia = tested on: P388/ADR leukemia
SN12K1 renal = tested on: SN12K1 renal
XF 498 CNS = tested on: XF 498 CNS
LXFL 529 NSCLC = tested on: LXFL 529 NSCLC
RXF-631 renal = tested on: RXF-631 renal

CCCN1C(=O)/C(=C(/O)C(=O)OCC)C(c2ccc(OC)c(OC)c2)C1=O (configuration not stated)
TGI (DLD-1 colon): > 100 µM | TGI (DMS 114 small cell lung): > 100 µM | TGI (DMS 273 small cell lung): > 100 µM | TGI (HOP-18 NSCLC): > 100 µM | TGI (M19-MEL melanoma): > 100 µM | TGI (P388 leukemia): > 100 µM | TGI (P388/ADR leukemia): > 100 µM | TGI (SN12K1 renal): > 100 µM | TGI (XF 498 CNS): > 100 µM

Cc1ccc(Nc2ccc(Nc3ccc(C)cc3S(=O)(=O)O)c3c2C(=O)c2ccccc2C3=O)c(S(=O)(=O)O)c1
TGI (DLD-1 colon): > 100 µM | TGI (DMS 114 small cell lung): > 100 µM | TGI (DMS 273 small cell lung): > 100 µM | TGI (HOP-18 NSCLC): > 100 µM | TGI (LXFL 529 NSCLC): > 100 µM | TGI (RXF-631 renal): > 100 µM

CC(=O)OC1C(O)C(C)OC(OC(=O)C2CCC3C(C2)OC2(CC(OC(=O)/C=C/c4ccccc4)C(C)CO2)C32CO2)C1OC1OC(C)C(O)C(O)C1O (configuration not stated)
TGI (DLD-1 colon): 5.69 µM | TGI (DMS 114 small cell lung): 0.0563 µM | TGI (DMS 273 small cell lung): 0.151 µM | TGI (HOP-18 NSCLC): 0.585 µM | TGI (M19-MEL melanoma): 0.0497 µM | TGI (P388 leukemia): 1.39 µM | TGI (P388/ADR leukemia): 113 µM | TGI (SN12K1 renal): 0.0828 µM | TGI (XF 498 CNS): 0.126 µM

CCCN(CCC)c1c([N+](=O)[O-])cc(C(=O)N(C)C)cc1[N+](=O)[O-]
TGI (DLD-1 colon): > 100 µM | TGI (DMS 114 small cell lung): > 100 µM | TGI (DMS 273 small cell lung): > 100 µM | TGI (LXFL 529 NSCLC): > 100 µM | TGI (M19-MEL melanoma): > 100 µM | TGI (XF 498 CNS): > 100 µM

Cc1oc2c(C)c3oc(=O)cc(C)c3cc2c1CN
TGI (DLD-1 colon): > 100 µM | TGI (DMS 114 small cell lung): > 100 µM | TGI (HOP-18 NSCLC): > 100 µM | TGI (LXFL 529 NSCLC): > 100 µM | TGI (M19-MEL melanoma): > 100 µM | TGI (RXF-631 renal): 90.4 µM | TGI (XF 498 CNS): 73.8 µM

CC(C)(Oc1ccc(C(=O)c2ccc(Cl)cc2)cc1Cl)C(=O)N1CCN(c2ccccc2)CC1
TGI (DLD-1 colon): > 100 µM | TGI (DMS 114 small cell lung): > 100 µM | TGI (DMS 273 small cell lung): > 100 µM | TGI (HOP-18 NSCLC): > 100 µM | TGI (LXFL 529 NSCLC): > 100 µM | TGI (M19-MEL melanoma): > 100 µM | TGI (XF 498 CNS): > 100 µM

NC(CNc1ccc(O)cc1)C(=O)O (configuration not stated)
TGI (DLD-1 colon): > 100 µM | TGI (DMS 114 small cell lung): > 100 µM | TGI (DMS 273 small cell lung): > 100 µM | TGI (HOP-18 NSCLC): > 100 µM | TGI (LXFL 529 NSCLC): > 100 µM | TGI (M19-MEL melanoma): 86.3 µM | TGI (RXF-631 renal): > 100 µM | TGI (XF 498 CNS): 29.1 µM

C/C(=C/c1c(C)[nH]c(=O)[nH]c1=O)C(=O)O
TGI (DLD-1 colon): > 1380 µM | TGI (DMS 114 small cell lung): > 1380 µM | TGI (DMS 273 small cell lung): > 1380 µM | TGI (HOP-18 NSCLC): > 1380 µM | TGI (M19-MEL melanoma): > 1380 µM | GI50 (P388 leukemia): > 1370 µM | TGI (P388 leukemia): > 1370 µM | TGI (P388/ADR leukemia): 1370 µM | TGI (SN12K1 renal): > 1380 µM | TGI (XF 498 CNS): > 1370 µM
